Assay results taken from patent US5463125A, “Phenyl alcohol amides having anticonvulsant activity” (priority 1993, dated 1995).
Like-named read-outs stand apart in the source and are kept apart here.

Assays:
[1] = Maximal electroshock test (MES); type: in vivo, mice (male albino, NMR-1 strain); settings: Mus musculus, ip, mice, at time of peak drug effect; 95% confidence interval
Experimental: (§1) Male albino mice (NMR-1 strain) weighing 28-32 gm were used in a mouse anticonvulsant and rotarod test. Each of the test compounds (n=0, 1 and 2) were dissolved in a 10% polyethylene glycol-400 saline solution and were administered intraperitoneally (i.p.). Convulsant agents were dissolved in saline solution, buffered with 15 mmol/l Tris-HCl, pH 7.4, except for bicuculline, which was first dissolved in 0.025N HCl, adjusting to pH 4 with a 0.15 mol/l citrate-phosphate buffer. The convulsant dose inducing seizures in 97% of mice (CD97) was determined and used in the pharmacological test. CD97 values obtained were: 85 for pentetrazol (PTZ), 15 for 4-aminopyridine (4-AP), 3.3 for bicuculline (BIC), 20 for thiosemicarbazide (TSC), and 2.0 for strychnine (STR) expressed as mg kg^-1. The time of peak drug effect was evaluated for each anticonvulsant before determining the dose-response curves. Convulsant agents were either injected subcutaneously (s.c. into the back of the neck (BIC, picrotoxin (PIC) and PTZ) or administered i.p. (4-AP, TSC and STR).
(§2) Abolition of the tonic components of the seizure was the end point, except for PTZ, where suppression of seizures of at least 5 seconds duration was considered the end point. […] The ED50, TD50 and 95% confidence intervals were calculated by the method of Litchfield and Wilcoxon. See Litchfield et al., J. Pharmacol. Exp. Ther. 96, 99 (1949).
In a maximal electroshock test, maximal seizures were induced by application of an electrical current across the brain via carclip electrodes. The stimulus parameters for mice were 30-35 mA, A.C. in pulses of 60 Hz for 200 ms. Each compound was tested at the time of peak drug effect. The dose at which the hind limb tonic seizure was blocked in 50% of the animals (ED50 value) was determined by probit analysis.
(§3) (PTZ), 4aminopyridine (4AP), bicuculline (BIC), thiosemicarbazide (TSC),

[2] = Pentetrazol (PTZ) anticonvulsant test; type: in vivo, mice (male albino, NMR-1 strain); settings: Mus musculus, ip, 10 min, mice; PTZ s.c.; suppression of seizures of at least 5 s; for compound 1 PTZ given 10 min postdosing (footnote d)
Experimental: as §1, §2
^a) Seizures provoked by: maximal electroshock (MES), pentetrazol
as §3

[3] = 4-aminopyridine (4-AP) anticonvulsant test; type: in vivo, mice (male albino, NMR-1 strain); settings: Mus musculus, ip, mice; 4-AP i.p.; abolition of tonic components
Experimental: as §1, §2, §3

[4] = Bicuculline (BIC) anticonvulsant test; type: in vivo, mice (male albino, NMR-1 strain); settings: Mus musculus, ip, mice; BIC s.c.; abolition of tonic components
Experimental: as §1, §2, §3

[5] = Thiosemicarbazide (TSC) anticonvulsant test; type: in vivo, mice (male albino, NMR-1 strain); settings: Mus musculus, ip, 10 min, mice, abolition of tonic components, for compound 1 TSC given 10 min postdosing
Experimental: as §1, §2, §3

[6] = Strychnine (STR) anticonvulsant test; type: in vivo, mice (male albino, NMR-1 strain); settings: for ED50: Mus musculus, ip, read-out: ED50 STR
Experimental: as §1, §2
(§4) strychnine (STR) and picrotoxin (PIC).

[7] = Picrotoxin (PIC) anticonvulsant test; type: in vivo, mice (male albino, NMR-1 strain)
Experimental: as §1, §2, §4

[8] = Accelerating rotarod ataxia test; type: in vivo, mice (male albino, NMR-1 strain)
Experimental: as §1
In a rotarod test, separate groups of mice were trained to stay on an accelerating rotarod that rotated initially at 2.16 rpm, then increased in speed to reach 22.5 rpm in 4 min. The drum diameter was 2.8 cm. Trained animals were dosed with the test compound or drug vehicle and were tested at the time of peak drug effect to measure the effects of the drug on motor performance. The dose at which 50% of the animals fell off the rotarod (TD50 value) was determined by probit analysis.
^b) Accelerating rotarod.

[9] = Solubility; type: physicochemical
Experimental: The solid formed was separated by means of filtration and washed with cold benzene. This solid is the DL-HEPA that crystallizes from benzene. […]. […] Fusion point was 91°-92° C. Yield was 20%.
While still warm, the mixture was carefully neutralized with a 5% sulfuric acid solution using litmus paper. Once neutralized, the mixture was extracted with 50 ml volumes of ethyl ether. The ether was distilled in a rotating evaporator, and the white solid residue was the DL-HEPP that crystallizes with water. […] Its fusion point is 101°-102° C.

[10] = constant speed rotarod; data obtained from NIH, ADD program; cited from earlier work
[11] = mice; cited from earlier work
[12] = cats; cited from earlier work
[13] = patients having grand mal seizures; cited from earlier work
[14] = in vivo; cited from earlier work
[15] = data obtained from NIH, ADD program; cited from earlier work
[16] = data obtained from NIH, ADD program; cited from earlier work; remark: listed apart in the source
[17] = Convulsant dose inducing seizures in 97% of mice (CD97); type: in vivo, mice (male albino, NMR-1 strain)
Experimental: as §1

[18] = Preliminary test against convulsions provoked by pentylenetetrazol; type: in vivo; settings: 100 mg kg^-1, i.p.
From the text: Phenyl alcohol amide derivatives of the foregoing compounds wherein n=0 to 2 may be synthesized by substitution of the ethyl group at the center of chirality by either a methyl or phenyl group. […] Substitution of ethyl by phenyl in the n=0 and n=1 produces a loss in anticonvulsant activity.

[19] = administered i.p. (4-AP, TSC, STR)

CCC(O)(C(N)=O)c1ccccc1 (racemic) [Compound 1, (±)-2-hydroxy-2-phenylbutyramide] showed an ED50 [1] of 126 mg/kg, an ED50 [2] of 67 mg/kg and an ED50 [3] of 24 mg/kg. The ED50 [4] was 29 mg/kg, the ED50 [5] was 47 mg/kg and the ED50 [6] was 56 mg/kg. The “strychnine activity relative to the n=2 compound” value ([6]; comparison in words) was “more than twice that of the n=2 compound”, the PIC effect ([7]; at 80 mgkg^-1) was “No effects” and the TD50 rotarod ataxia ([8]; accelerating rotarod, i.p., mice, compound 2 tested 30 min postdosing) was 132 mg/kg. The “solubility (insoluble in)” value [9] was “insoluble in cold benzene or water” and the “solubility (soluble in)” value [9] was “soluble in ethyl alcohol, chloroform and hot benzene”.
Work on CCC(O)(CC(N)=O)c1ccccc1 (racemic) [Compound 2, (±)-3-hydroxy-3-phenylpentamide] yielded an ED50 [1] of 144 mg/kg, an ED50 [2] of 63 mg/kg and an ED50 [3] of 19 mg/kg. For the same compound, the ED50 [4] was 38 mg/kg, the ED50 [5] was 43 mg/kg and the “Maximum protection, STR” value ([6]; at 100 mgkg^-1, STR administered 15 min postdosing) was 30%. For the same compound, the “Maximum protection, PIC” value ([7]; at 130 mgkg^-1, PIC administered 15 min postdosing) was 37%, the picrotoxin test activity ([7]; dose of 130 mg kg^-1) was “active” and the “neurotoxicity in rotarod ataxia test” value ([8]; in words) was “unusually low neurotoxicity”. The TD50 ([8]; mouse, in vivo, ip, accelerating rotarod, i.p., mice, compound 2 tested 30 min postdosing, read-out: TD50 rotarod ataxia) was 214 mg/kg, the “solubility (insoluble in)” value [9] was “insoluble in cold water” and the “solubility (soluble in)” value [9] was “soluble in ethyl alcohol, benzene and hot water”.
In the case of CCC(O)(CCC(N)=O)c1ccccc1 (racemic) [Compound 3, (±)-4-hydroxy-4-phenylhexanamide], the ED50 [1] is reported as 148 mg/kg, the ED50 [2] is reported as 63 mg/kg and the ED50 [3] is reported as 29 mg/kg. It also gave an ED50 [4] of 30 mg/kg, an ED50 [5] of 73 mg/kg and an ED50 [6] of 106 mg/kg. The PIC effect ([7]; at 120 mgkg^-1) was “No effects”, the TD50 ([8]; rotarod ataxia test) was 111 and the TD50 rotarod ataxia [10] was 168 mg/kg. The “protection against seizures provoked by bicuculline” value [11] was “protects mice against seizures”, the “protection against seizures provoked by maximal electroshock” value [11] was “protects mice against seizures” and the “protection against seizures provoked by pentetrazol” value [11] was “protects mice against seizures”. The “protection against hippocampal kindling” value [12] was “protects”, the clinical antiepileptic action [13] was “potent clinical antiepileptic action” and the “profile of anticonvulsant activity” value [14] was “broad profile of anticonvulsant activity”. For the same compound, the “ED50 MES” value [15] was 147 mg/kg and the “ED50 PTZ” value [16] was 58 mg/kg.
Work on Nc1ccncc1 [4-aminopyridine] yielded a CD97 [17, 19] of 15 mg/kg.
CN1CCc2cc3c(cc2[C@H]1[C@@H]1OC(=O)c2c1ccc1c2OCO1)OCO3 [bicuculline] gave a CD97 ([17]; administered s.c. (PTZ, BIC)) of 3.3 mg/kg.
With CC(O)(CC(N)=O)c1ccccc1 (stereo not drawn) [methyl group in the n=1 compound] the “anticonvulsant activity against pentylenetetrazol convulsions” value [18] was “suppresses anticonvulsant activity”.
With CC(O)(C(N)=O)c1ccccc1 (stereo not drawn) [n=0 derivative] the “anticonvulsant activity against pentylenetetrazol convulsions” value [18] was “retains activity”.
In the case of CC(O)(CCC(N)=O)c1ccccc1 (stereo not drawn) [n=2 derivative], the “anticonvulsant activity against pentylenetetrazol convulsions” value [18] is reported as “conserves half-potency”.
Compound C1CCc2nnnn2CC1 [pentetrazol] has a CD97 ([17]; administered s.c. (PTZ, BIC)) of 85 mg/kg.
For O=C1C[C@@H]2OCC=C3CN4CC[C@]56c7ccccc7N1[C@H]5[C@H]2[C@H]3C[C@H]46 [strychnine], the CD97 [17, 19] was 2.0 mg/kg.
With NNC(N)=S [thiosemicarbazide] the CD97 [17, 19] was 20 mg/kg.
